system: HT-29 cells; test: Cellular RIP1 inhibitory activity: necroptosis of HT-29 cells induced by TNF-α/SMAC mimetic/zVAD-FMK, CellTiter-Glo viability; assay type: cell-based; conditions: Homo sapiens, HT-29, 20 h, read-out: EC50 (Cell activity; Necrosis or Necroptosis Inhibitory Activity)
Procedure: In Table 2, activity is provided as follows: +++=0.1 nM≤EC50<100 nM; ++=100 nM≤EC50K<1000 nM; +=1000 nM≤EC50K<10000 nM.
Compounds 1-67 (denoted as Compound Nos. 1 through 67 in Table 1) of the disclosure were tested for binding and cellular RIP1 inhibitory activity following the experimental procedures described below.
Cell line: HT-29 (ATCC® HTB-38™)
Culture medium: McCOY's 5A, Gibco, Cat No. 16600-082
DMSO: Sigma, Cat No. 67-68-5, 1 L
Assay plate: Corning #3903
Compound dilution plate: Corning #3357
Inducers: TNFα, GenScript, Cat No. Z01001-50,
SmacM, Cat. No., HY-15989, MedChemExpress (MCE)
Z_VAD FMK, TargetMol, T6013
Cell Titer-Glo® Luminescent Cell Viability Assay Kit: Promega, Cat No. G7573
1. HT-29 cells were checked every day to make sure that they were healthy and growing as expected. They were subjected to sub-culturing when they were approximately 80% confluent.
2. The culture medium, McCOY's 5A medium (Gibco, Cat No. 16600-082) with 10% fetal bovine serum or FBS (Gibco, Cat No. 10099-141C), was pre-warmed in a 37° C. water bath for at least 30 min.
3. When the cells had reached a desired level of confluency of 80% in a T75 flask, the medium was aspirated, and the cells were washed with warm phosphate buffered saline or PBS two times.
4. 2-3 ml fresh warm trypsin (Gibco, Cat No. 25200-056) solution was added to the washed cells. The flask with the cells was transferred to a 37° C. incubator.
5. After 5 minutes, the side of the flask was tapped, and the flask was examined under a microscope for detachment of the cells to the flask. If necessary, the cells were kept in the incubator for an additional 5-10 minutes, with occasional tapping, until lifting was complete.
6. The trypsin reaction was neutralized by transferring 6-9 ml cell culture medium to sterile 15 ml conical tubes, and by centrifuging the cell culture at 300×g for 7 minutes to pellet the cells (supernatant decanted).
7. The cells were resuspended in fresh cell culture medium and the cell counting was performed using a hemocytometer.
8. 100 μl of the resuspended cell culture medium containing ˜5,000 cells were transferred into each well of the sterile 96-well cell culture plate (Corning 3903) and cultured overnight at 37° C. with 5% CO2.
Compound Titration and Treatment
1. All test compounds were dissolved in DMSO (Dimethyl sulfoxide) to create a 20 mM stock.
2. 3 μl of each compound 20 mM stock was mixed with 27 μl DMSO, and the compound solution was further diluted at a titration ratio of 1:3 (20 μl compound solution+40 μl DMSO) till the 10 points end.
3. All culture medium was removed from assay plates filled with HT-29 cell cultures. The cells were then washed with 1 PBS, and resuspended in fresh, FBS-free McCOY's 5A medium containing a cocktail of TNF-α (10 ng/ml), a SMAC mimetic compound (6 μM) and Z-VAD-fluoromethylketone or zVAD-FMK (10 μM) to stimulate the HT-29 cells to increase RIP1 kinase levels and necroptosis.
4. 0.5 μL of the diluted compound solution was added to the corresponding 96-well assay plates.
5. The assay plates were incubated for 20 hours at 37° C. with 5% CO2.
1. The CellTiter-Glo® Luminescent Cell Viability Assay was employed to detect the ATP levels of viable HT-29 cells.
2. The CellTiter-Glo® buffer and the lyophilized substrate were equilibrated to room temperature prior to use.
3. The CellTiter-Glo® substrate was resuspended with CellTiter-Glo® buffer, then mixed by gently vortexing to obtain a homogeneous solution.
4. 20 μl the enzyme/substrate mixture was transferred by multi-channel pipetting into 96-well assay plates.
5. The assay plates were placed on an orbital shaker and the contents were shaken for 3 minutes to induce cell lysis.
6. The assay plates were incubated at room temperature for 10 minutes to stabilize the luminescent signal.
7. The luminescence signals were read and recorded with EnVision.
8. The geometric mean EC50 values were calculated from 10 points response dose with duplicates. […]

Which EC50 does the source give for O=C(c1ccnc(N2CCN(C(=O)N3N=CC[C@H]3c3cc(F)cc(F)c3)CC2)n1)N1CCC1 [Compound 36, (S)-azetidin-1-yl(2-(4-(5-(3,5-difluorophenyl)-4,5-dihydro-1H-pyrazole-1-carbonyl)piperazin-1-yl)pyrimidin-4-yl)methanone] here?
Its EC50 is 0.1 to 100 nM.

same assay, conditions: Homo sapiens; HT-29 cells; TNF-α 10 ng/ml, SMAC mimetic 6 μM, zVAD-FMK 10 μM; 20 hours; geometric mean, 10 points, duplicates; read-out: EC50 (Cell activity; Necrosis or Necroptosis Inhibitory Activity)

Which EC50 does the source give for O=C(c1nc(N2CCN(C(=O)N3N=CC[C@H]3c3cc(F)cc(F)c3)CC2)ncc1F)N1CCOCC1 [Compound 18, (5-(3,5-difluorophenyl)-4,5-dihydro-1H-pyrazol-1-yl)(4-(5-fluoro-4-(morpholine-4-carbonyl)pyrimidin-2-yl)piperazin-1-yl)methanone] here?
Its EC50 is 0.1 to 100 nM.

How did the EC50 turn out when COC(=O)c1ccnc(N2CCN(C(=O)N3N=CC[C@H]3c3cc(F)cc(F)c3)CC2)n1 [Compound 49, methyl (S)-2-(4-(5-(3,5-difluorophenyl)-4,5-dihydro-1H-pyrazole-1-carbonyl)piperazin-1-yl)pyrimidine-4-carboxylate] was run?
Its EC50 is 0.1 to 100 nM.

For O=C(c1nc(N2CCN(C(=O)N3N=CC[C@H]3c3cc(F)cc(F)c3)CC2)ncc1F)N1CCCCC1 [Compound 17, (5-(3,5-difluorophenyl)-4,5-dihydro-1H-pyrazol-1-yl)(4-(5-fluoro-4-(piperidine-1-carbonyl)pyrimidin-2-yl)piperazin-1-yl)methanone], which EC50 is on record?
The EC50 was 0.1 to 100 nM.

For NC(=O)C1CN(C(=O)c2nc(N3CCN(C(=O)N4N=CC[C@H]4c4cc(F)cc(F)c4)CC3)ncc2F)C1 [Compound 30, (S)-1-(2-(4-(5-(3,5-difluorophenyl)-4,5-dihydro-1H-pyrazole-1-carbonyl)piperazin-1-yl)-5-fluoropyrimidine-4-carbonyl)azetidine-3-carboxamide], which EC50 is on record?
Its EC50 is 0.1 to 100 nM.

N#CC=C1CN(C(=O)c2nc(N3CCN(C(=O)N4N=CC[C@H]4c4cc(F)cc(F)c4)CC3)ncc2F)C1 [Compound 57, (S)-2-(1-(2-(4-(5-(3,5-difluorophenyl)-4,5-dihydro-1H-pyrazole-1-carbonyl)piperazin-1-yl)-5-fluoropyrimidine-4-carbonyl)azetidin-3-ylidene)acetonitrile] was tested. Which EC50 did it give?
Its EC50 is 0.1 to 100 nM.

COC1CN(C(=O)c2nc(N3CCN(C(=O)N4N=CC[C@H]4c4cc(F)cc(C#N)c4)CC3)ncc2F)C1 [Compound 51, (S)-3-fluoro-5-(1-(4-(5-fluoro-4-(3-methoxyazetidine-1-carbonyl)pyrimidin-2-yl)piperazine-1-carbonyl)-4,5-dihydro-1H-pyrazol-5-yl)benzonitrile] was tested. Which EC50 did it give?
The EC50 was 0.1 to 100 nM.

O=C(NO)c1nc(N2CCN(C(=O)N3N=CC[C@H]3c3cc(F)cc(F)c3)CC2)ncc1F [Compound 2, (S)-2-(4-(5-(3,5-difluorophenyl)-4,5-dihydro-1H-pyrazole-1-carbonyl)piperazin-1-yl)-5-fluoro-N-hydroxypyrimidine-4-carboxamide] was tested. Which EC50 did it give?
Its EC50 is 0.1 to 100 nM.

With NC(=O)c1cc(N2CCN(C(=O)N3N=CC[C@H]3c3cc(F)cc(F)c3)CC2)c(F)cn1 [Compound 67, (S)-4-(4-(5-(3,5-difluorophenyl)-4,5-dihydro-1H-pyrazole-1-carbonyl)piperazin-1-yl)-5-fluoropicolinamide] as the compound, how does the EC50 read?
Its EC50 is 100 to 1000 nM.

O=C(c1nc(N2CCN(C(=O)N3N=CC[C@H]3c3cc(F)cc(F)c3)CC2)ncc1F)N1CC(O)C1 [Compound 13, (5-(3,5-difluorophenyl)-4,5-dihydro-1H-pyrazol-1-yl)(4-(5-fluoro-4-(3-hydroxyazetidine-1-carbonyl)pyrimidin-2-yl)piperazin-1-yl)methanone] was tested. Which EC50 did it give?
Its EC50 is 0.1 to 100 nM.

How did the EC50 turn out when CCOC1CN(C(=O)c2nc(N3CCN(C(=O)N4N=CC[C@H]4c4cc(F)cc(F)c4)CC3)ncc2F)C1 [Compound 23, (S)-(5-(3,5-difluorophenyl)-4,5-dihydro-1H-pyrazol-1-yl)(4-(4-(3-ethoxyazetidine-1-carbonyl)-5-fluoropyrimidin-2-yl)piperazin-1-yl)methanone] was run?
The EC50 was 0.1 to 100 nM.

How did the EC50 turn out when COC1CN(C(=O)c2nc(N3CCN(C(=O)N4N=CC[C@H]4c4cncc(C#N)c4)CC3)ncc2F)C1 [Compound 53, (S)-5-(1-(4-(5-fluoro-4-(3-methoxyazetidine-1-carbonyl)pyrimidin-2-yl)piperazine-1-carbonyl)-4,5-dihydro-1H-pyrazol-5-yl)nicotinonitrile] was run?
Its EC50 is 0.1 to 100 nM.

With CN(CC#N)C(=O)c1nc(N2CCN(C(=O)N3N=CC[C@H]3c3cc(F)cc(F)c3)CC2)ncc1F [Compound 34, (S)—N-(cyanomethyl)-2-(4-(5-(3,5-difluorophenyl)-4,5-dihydro-1H-pyrazole-1-carbonyl)piperazin-1-yl)-5-fluoro-N-methylpyrimidine-4-carboxamide] as the compound, how does the EC50 read?
Its EC50 is 0.1 to 100 nM.

How did the EC50 turn out when NC(=O)c1cc(N2CCN(C(=O)N3N=CC[C@H]3c3cc(F)cc(F)c3)CC2)ncn1 [Compound 40, (S)-6-(4-(5-(3,5-difluorophenyl)-4,5-dihydro-1H-pyrazole-1-carbonyl)piperazin-1-yl)pyrimidine-4-carboxamide] was run?
Its EC50 is 0.1 to 100 nM.

How did the EC50 turn out when N#CC1CN(C(=O)c2nc(N3CCN(C(=O)N4N=CC[C@H]4c4cc(F)cc(F)c4)CC3)ncc2F)C1 [Compound 25, (S)-1-(2-(4-(5-(3,5-difluorophenyl)-4,5-dihydro-1H-pyrazole-1-carbonyl)piperazin-1-yl)-5-fluoropyrimidine-4-carbonyl)azetidine-3-carbonitrile] was run?
Its EC50 is 0.1 to 100 nM.

For CN(C)C(=O)c1nc(N2CCN(C(=O)N3N=CC[C@H]3c3cc(F)cc(F)c3)CC2)ncc1F [Compound 5, 2-(4-(5-(3,5-difluorophenyl)-4,5-dihydro-1H-pyrazole-1-carbonyl)piperazin-1-yl)-5-fluoro-N,N-dimethylpyrimidine-4-carboxamide], which EC50 is on record?
Its EC50 is 0.1 to 100 nM.

With CCN(C)C(=O)c1nc(N2CCN(C(=O)N3N=CC[C@H]3c3cc(F)cc(F)c3)CC2)ncc1F [Compound 6, (S)-2-(4-(5-(3,5-difluorophenyl)-4,5-dihydro-1H-pyrazole-1-carbonyl)piperazin-1-yl)-N-ethyl-5-fluoro-N-methylpyrimidine-4-carboxamide] as the compound, how does the EC50 read?
The EC50 was 0.1 to 100 nM.

With N#Cc1cncc([C@@H]2CC=NN2C(=O)N2CCN(c3nccc(C(N)=O)n3)CC2)c1 [Compound 43, (S)-2-(4-(5-(5-cyanopyridin-3-yl)-4,5-dihydro-1H-pyrazole-1-carbonyl)piperazin-1-yl)pyrimidine-4-carboxamide] as the compound, how does the EC50 read?
The EC50 was 100 to 1000 nM.

For NC(=O)c1ccnc(N2CCN(C(=O)N3N=CC[C@H]3c3cc(F)cc(F)c3)CC2)n1 [Compound 38, 2-(4-(5-(3,5-difluorophenyl)-4,5-dihydro-1H-pyrazole-1-carbonyl)piperazin-1-yl)pyrimidine-4-carboxamide], which EC50 is on record?
The EC50 was 0.1 to 100 nM.

With CCOC(=O)c1nc(N2CCN(C(=O)N3N=CC[C@H]3c3cc(F)cc(F)c3)CC2)ncc1F [Compound 47] as the compound, how does the EC50 read?
The EC50 was 0.1 to 100 nM.

For NC(=O)c1ccnc(N2CCN(C(=O)N3N=CC[C@H]3c3ccccc3)CC2)n1 [Compound 41, (S)-2-(4-(5-phenyl-4,5-dihydro-1H-pyrazole-1-carbonyl)piperazin-1-yl)pyrimidine-4-carboxamide], which EC50 is on record?
Its EC50 is 0.1 to 100 nM.

Which EC50 does the source give for O=C(c1nc(N2CCN(C(=O)N3N=CC[C@H]3c3cc(F)cc(F)c3)CC2)ncc1F)N1CC(F)(F)C1 [Compound 12, (S)-(3,3-difluoroazetidin-1-yl)(2-(4-(5-(3,5-difluorophenyl)-4,5-dihydro-1H-pyrazole-1-carbonyl)piperazin-1-yl)-5-fluoropyrimidin-4-yl)methanone] here?
Its EC50 is 0.1 to 100 nM.

From patent publication US12612388B2, “Receptor-interacting protein 1 inhibitors including piperazine heterocyclic amide ureas” (SIRONAX LTD., priority 2020, dated 2026)
